According to patent US7816342B2, “Anti-obesity compositions” (Hoffmann-La Roche Inc., priority 2002, dated 2010):
Values joined by “and” are separate entries in the source; they are usually repeats but may differ in a detail not shown here. Identical values can stand only once.

Tested on: Healthy volunteers
Test: acute human side effect model (3-meal test), free oil
Assay type: in vivo
Conditions: orlistat alone (own control), individual volunteers
Source text: To test substances that will ameliorate the oil-related side effects associated with orlistat treatment, an acute human model was developed. Healthy volunteers received orlistat alone or in combination with the test substance during 3 consecutive meals (3-meal test). The modified orlistat formulations used in these 3-meal tests induce 70-80% fat excretion. A questionnaire was given to the volunteers to record side effects. The most severe oil related side effect is oily spotting (uncontrolled loss of oil). This side effect is difficult to quantify accurately in an acute model, however, in some volunteers a spontaneous separation of fat from formed stool was observed. This amount of fat, called free oil (mainly containing triglycerides) was isolated and weighted. The amount of free oil was used as a surrogate marker for the oily spotting as this is considered necessary for the appearance of oily spotting. Two clinical studies have been conducted to investigate the gastro-intestinal adverse event modifying effects of numerous substances. It appears that volunteers show an individual sensitivity to the orlistat-related gastro-intestinal side effects. […] For a given volunteer a substance is considered as positive when the free oil quantity is reduced by at least 50% compared to the control value (orlistat alone). […]

With `CCCCCCCCCCC[C@@H](C[C@@H]1OC(=O)[C@H]1CCCCCC)OC(=O)[C@H](CC(C)C)NC=O` [orlistat] the Free oil production (Test 1) was 11 g/week and 9 g/week and the Free oil production (Test 2) was 17 g/week and 40 g/week and 39 g/week.
